The text below walks through data of US4187216A, “Dipeptide derivatives” (Hoffmann-La Roche Inc., priority 1976, dated 1980).

Where a name gives a salt, the structure may show the parent alone. Residues, ends and D or L forms follow the SMILES beside them. *: point of attachment. pNA = O=[N+]([O-])c1ccc(N*)cc1; Tos = Cc1ccc(S(=O)(=O)*)cc1; Hexanoyl = CCCCCC(=O)*; Propionyl = CCC(=O)*; Tfa = O=C(C(F)(F)F)*; NHPh = c1ccc(N*)cc1

The first assay concerns the target T1, human granulocyte elastase (Homo sapiens, UniProt P08246).
T1 sequence (P08246 30-267): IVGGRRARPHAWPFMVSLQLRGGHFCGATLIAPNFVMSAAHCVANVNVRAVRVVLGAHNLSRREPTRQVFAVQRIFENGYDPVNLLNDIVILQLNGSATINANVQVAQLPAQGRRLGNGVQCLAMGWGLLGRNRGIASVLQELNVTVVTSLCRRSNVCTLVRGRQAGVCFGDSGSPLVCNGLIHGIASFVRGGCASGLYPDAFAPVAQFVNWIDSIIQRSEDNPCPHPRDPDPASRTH
Kind of assay: in vitro elastase inhibition, test method of Visser and Blout, human granulocyte elastase as enzyme. It is filed as biochemical. Conditions: read-out: I50, concentration which gives 50% inhibition of the human granulocyte elastase. An excerpt: Acta 268 (1972) 257, using human granulocyte elastase as the enzyme. The results obtained with representative dipeptide derivatives of formula I in this test are given in Table I hereinafter, the I50 being the concentration in millimoles per liter which gives 50% inhibition of the human granulocyte elastase: […]
With `CCCCCC(=O)N[C@@H](C)C(=O)N1CCC[C@H]1C(=O)Nc1ccccc1` [(N-Hexanoyl-L-alanyl-L-proline) anilide, N-Hexanoyl-L-alanyl-L-proline anilide] (Hexanoyl-Ala-Pro-NHPh), the IC50 was 800 µM.
On the same count and under the same terms, to `C[C@H](NC(=O)CC12CC3CC(CC(C3)C1)C2)C(=O)N1CCC[C@H]1C(=O)Nc1ccccc1` [N-(1-Adamantylacetyl)-L-alanyl-L-proline anilide] belongs 60 µM; to `C[C@H](NC(=O)C12CC3CC(CC(C3)C1)C2)C(=O)N1CCC[C@H]1C(=O)Nc1ccccc1` [N-(1-Adamantylcarbonyl)-L-alanyl-L-proline anilide], 600 µM.
On the same count and under the same terms, to `C[C@H](NS(=O)(=O)C12CC3CC(CC(C3)C1)C2)C(=O)N1CCC[C@H]1C(=O)Nc1ccccc1` [N-(1-Adamantylsulphonyl)-L-alanyl-L-proline anilide] belongs 7 µM.
Still for that read-out and setting: to `Cc1ccc(S(=O)(=O)N[C@@H](C)C(=O)N2CCC[C@H]2C(=O)Nc2ccccc2)cc1` [N-(p-Toluenesulphonyl)-L-alanyl-L-proline anilide] (Tos-Ala-Pro-NHPh) belongs 60 µM; to `C[C@H](NC(=O)OCc1ccccc1)C(=O)N1CCC[C@H]1C(=O)NC1CCCCC1` [N-Benzyloxycarbonyl-L-alanyl-L-proline cyclohexylamide], 1000 µM; to `CCCCCNC(=O)[C@@H]1CCCN1C(=O)[C@H](C)NC(=O)OCc1ccccc1` [N-Benzyloxycarbonyl-L-alanyl-L-proline n-pentylamide], ~5000 µM.

In the next assay the target is porcine pancreatic elastase (Sus scrofa, UniProt P00772). The assay is described as follows: in vitro elastase inhibition, test method of Visser and Blout, porcine pancreatic elastase as enzyme. Type of assay: biochemical. Conditions: read-out: Ki, inhibitor constant.
porcine pancreatic elastase, sequence (P00772 27-266): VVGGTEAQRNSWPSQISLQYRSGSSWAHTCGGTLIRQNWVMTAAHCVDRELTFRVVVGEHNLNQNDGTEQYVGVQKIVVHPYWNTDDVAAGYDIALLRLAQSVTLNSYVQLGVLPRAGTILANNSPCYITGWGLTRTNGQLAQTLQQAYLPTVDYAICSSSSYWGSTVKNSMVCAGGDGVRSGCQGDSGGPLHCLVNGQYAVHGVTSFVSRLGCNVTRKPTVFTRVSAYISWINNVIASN
As for `CCC(=O)N[C@@H](C)C(=O)N[C@@H](C)C(=O)Nc1ccccc1` [N-Propionyl-L-alanyl-L-alanine anilide] (Propionyl-Ala-Ala-NHPh), the Ki is 40 µM.
Same read-out and setting: to `CCC(=O)N[C@@H](C)C(=O)N1CCC[C@H]1C(=O)Nc1ccc([N+](=O)[O-])cc1` [N-Propionyl-L-alanyl-L-proline 4-nitroanilide] (Propionyl-Ala-Pro-pNA) belongs 26 µM; to `CCC(=O)N[C@@H](C)C(=O)N1CCC[C@H]1C(=O)Nc1ccccc1` [N-Propionyl-L-alanyl-L-proline anilide] (Propionyl-Ala-Pro-NHPh), 40 µM; to `CCC(=O)N[C@@H](C)C(=O)N1CCC[C@H]1C(=O)NC1CCCCC1` [N-Propionyl-L-alanyl-L-proline cyclohexylamide], 20 µM.
Same read-out and setting: to `C[C@H](NC(=O)C(F)(F)F)C(=O)N1CCC[C@H]1C(=O)Nc1ccccc1` [N-Trifluoroacetyl-L-alanyl-L-proline anilide] (Tfa-Ala-Pro-NHPh) belongs 1.4 µM.
